In brackets after ≈: the same amount, converted by molar mass. Where two headings read alike, the source gives them in different places.
What was measured:
E. coli W3110 [1] = experiment: MIC by broth microdilution; type: cell-based, Escherichia coli; conditions: Escherichia coli
Outline: (§1)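 Broth microdilution in CAMHB: twofold compound series inoculated with 100-fold-diluted bacteria from exponential growth (OD600 0.5, 37 °C); kanamycin 50 µg ml^−1 added for Keio collection strains. Overnight incubation, 37 °C, 600 r.p.m. shaking.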

K. pneumoniae ATCC 29665 = experiment: MIC by broth microdilution; type: cell-based, Klebsiella pneumoniae; conditions: Klebsiella pneumoniae
Outline: as §1

[2] = tested on: E. coli BW25113 and single-gene knockouts; experiment: MIC on E. coli strains of the Keio collection; type: cell-based, Escherichia coli; conditions: Escherichia coli
Procedure: (§2) MIC was determined by broth microdilution. Single-colony cultures were grown to exponential phase (OD600 of 0.5) aerobically at 37 °C. In case of strains from the Keio collection, 50 µg ml^−1 kanamycin was supplemented to the media to ascertain a homogeneous population. The bacterial suspensions were diluted 100-fold in CAMHB and 50 µl was added to a twofold serial dilution series of test compounds (50 µl per well) in polypropylene 96-well microtitre plates to reach a volume of 100 µl. The plates were sealed with breathable membranes and incubated overnight at 37 °C with constant shaking (600 r.p.m.). The MIC was determined as the lowest concentration at which no visible bacterial growth was observed as compared with the inoculum controls from the median of a minimum of triplicates.

E. coli ATCC 25922 = experiment: MIC by broth microdilution; type: cell-based
Procedure: as §2, with “r.p.m.).” for “r.p.m.). The MIC was determined as the lowest concentration at which no visible bacterial growth was observed as compared with the inoculum controls from the median of a minimum of triplicates.”

E. coli W3110 [3] = experiment: Checkerboard assay with PMBN;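 for checkerboard plate reading, Average values: OD600 read after 20 h incubation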
[4] = tested on: clinical isolates of E. coli; experiment: MIC against clinical isolates and potentiation by 4 µM PMBN; type: cell-based, Escherichia coli; conditions: for MSC: with 4 µM PMBN; for MIC: Escherichia coli
Procedure: as §2, with “r.p.m.).” for “r.p.m.). The MIC was determined as the lowest concentration at which no visible bacterial growth was observed as compared with the inoculum controls from the median of a minimum of triplicates.”

[5] = ATCC29665, read-out: MIC K. pneumoniae ATCC 29665
[6] = BW25113, read-out: MIC E. coli BW25113, parent strain
[7] = ATCC29665, broth microdilution, read-out: MIC K. pneumoniae ATCC 29665
[8] = Escherichia coli, ATCC25922; read-out: MIC E. coli ATCC 25922
[9] = E. coli 1075, fold change in MIC after 4 µM PMBN
[10] = E. coli 552059.1, fold change in MIC after 4 µM PMBN
[11] = E. coli 552060.1, fold change in MIC after 4 µM PMBN
[12] = E. coli MVAST0072, fold change in MIC after 4 µM PMBN
[13] = E. coli NCTC13463, fold change in MIC after 4 µM PMBN
[14] = E. coli NCTC13846, fold change in MIC after 4 µM PMBN
[15] = E. coli mcr-1, fold change in MIC after addition of 4 µM PMBN
[16] = E. coli 1075 (MDR), read-out: MIC
[17] = E. coli 552059.1, read-out: MIC
[18] = E. coli 552060.1, read-out: MIC
[19] = E. coli MVAST0072 (MDR), read-out: MIC
[20] = NCTC13463, E. coli NCTC13463 (ESBL), read-out: MIC
[21] = NCTC13846, E. coli NCTC13846 (MDR, mcr-1)

O=C(O)c1cn(C2CC2)c2cc(N3CCNCC3)c(F)cc2c1=O [CIP, ciprofloxacin]
MIC (E. coli W3110 [1]; W3110): 7.8 ng/mL | MIC (E. coli W3110 [1]; W3110, read-out: MIC E. coli WT strain): 0.024 µM | MIC (K. pneumoniae ATCC 29665; [5]): 0.012 µM (≈ 0.00398 µg/mL) | MIC ([2]; BW25113, JW3594 ΔrfaD): > 0.048 µM | MIC ([2]; BW25113, JW3596 ΔrfaC, LPS disruption (genetic)): 0.024 µM (≈ 0.00795 µg/mL) | MIC ([2]; BW25113, JW3600 ΔrfaY): 0.024 µM (≈ 0.00795 µg/mL) | MIC ([2]; BW25113, JW3602 ΔrfaI): 0.024 µM (≈ 0.00795 µg/mL) | MIC ([2]; BW25113, JW3605 ΔrfaP): 0.048 µM (≈ 0.0159 µg/mL) | MIC ([2]; BW25113, JW5503 ΔTolC): 0.024 µM (≈ 0.00795 µg/mL) | MIC [2, 6]: 0.024 µM (≈ 0.00795 µg/mL) | MIC (E. coli ATCC 25922; Escherichia coli, ATCC25922, read-out: MIC E. coli ATCC 25922): 0.024 µM (≈ 0.00795 µg/mL) | checkerboard plate reading, Average values (E. coli W3110 [3]; Ciprofloxacin 1.5625 nM + PMBN 1 µM): 0.8906 | checkerboard plate reading, Average values (E. coli W3110 [3]; Ciprofloxacin 1.5625 nM + PMBN 2 µM): 0.8911 | checkerboard plate reading, Average values (E. coli W3110 [3]; Ciprofloxacin 1.5625 nM + PMBN 4 µM): 0.726 | checkerboard plate reading, Average values (E. coli W3110 [3]; Ciprofloxacin 1.5625 nM + PMBN 8 µM): 0.6303 | checkerboard plate reading, Average values (E. coli W3110 [3]; Ciprofloxacin 3.125 nM + PMBN 0 µM): 0.9278 | checkerboard plate reading, Average values (E. coli W3110 [3]; Ciprofloxacin 3.125 nM + PMBN 0.5 µM): 0.8723 | checkerboard plate reading, Average values (E. coli W3110 [3]; Ciprofloxacin 3.125 nM + PMBN 1 µM): 0.849 | checkerboard plate reading, Average values (E. coli W3110 [3]; Ciprofloxacin 3.125 nM + PMBN 2 µM): 0.8236 | checkerboard plate reading, Average values (E. coli W3110 [3]; Ciprofloxacin 3.125 nM + PMBN 4 µM): 0.7354 | checkerboard plate reading, Average values (E. coli W3110 [3]; Ciprofloxacin 3.125 nM + PMBN 8 µM): 0.666 | checkerboard plate reading, Average values (E. coli W3110 [3]; Ciprofloxacin 3.125 nM + PMBN 16 µM): 0.8076 | checkerboard plate reading, Average values (E. coli W3110 [3]; Ciprofloxacin 3.125 nM + PMBN 32 µM): 0.5963 | checkerboard plate reading, Average values (E. coli W3110 [3]; Ciprofloxacin 6.25 nM + PMBN 0 µM): 0.8608 | checkerboard plate reading, Average values (E. coli W3110 [3]; Ciprofloxacin 6.25 nM + PMBN 0.5 µM): 0.801 | checkerboard plate reading, Average values (E. coli W3110 [3]; Ciprofloxacin 6.25 nM + PMBN 1 µM): 0.7994 | checkerboard plate reading, Average values (E. coli W3110 [3]; Ciprofloxacin 6.25 nM + PMBN 2 µM): 0.8003 | checkerboard plate reading, Average values (E. coli W3110 [3]; Ciprofloxacin 6.25 nM + PMBN 4 µM): 0.7289 | checkerboard plate reading, Average values (E. coli W3110 [3]; Ciprofloxacin 6.25 nM + PMBN 8 µM): 0.6534 | checkerboard plate reading, Average values (E. coli W3110 [3]; Ciprofloxacin 6.25 nM + PMBN 16 µM): 0.5862 | checkerboard plate reading, Average values (E. coli W3110 [3]; Ciprofloxacin 6.25 nM + PMBN 32 µM): 0.4866 | checkerboard plate reading, Average values (E. coli W3110 [3]; Ciprofloxacin 12.5 nM + PMBN 0 µM): 0.8404 | checkerboard plate reading, Average values (E. coli W3110 [3]; Ciprofloxacin 12.5 nM + PMBN 0.5 µM): 0.7355 | checkerboard plate reading, Average values (E. coli W3110 [3]; Ciprofloxacin 12.5 nM + PMBN 1 µM): 0.7301 | checkerboard plate reading, Average values (E. coli W3110 [3]; Ciprofloxacin 12.5 nM + PMBN 2 µM): 0.723 | checkerboard plate reading, Average values (E. coli W3110 [3]; Ciprofloxacin 12.5 nM + PMBN 4 µM): 0.67 | checkerboard plate reading, Average values (E. coli W3110 [3]; Ciprofloxacin 12.5 nM + PMBN 8 µM): 0.5682 | checkerboard plate reading, Average values (E. coli W3110 [3]; Ciprofloxacin 12.5 nM + PMBN 16 µM): 0.6754 | checkerboard plate reading, Average values (E. coli W3110 [3]; Ciprofloxacin 12.5 nM + PMBN 32 µM): 0.5017 | checkerboard plate reading, Average values (E. coli W3110 [3]; Ciprofloxacin 25 nM + PMBN 0 µM): 0.4892 | checkerboard plate reading, Average values (E. coli W3110 [3]; Ciprofloxacin 25 nM + PMBN 0.5 µM): 0.5201 | checkerboard plate reading, Average values (E. coli W3110 [3]; Ciprofloxacin 25 nM + PMBN 1 µM): 0.4961 | checkerboard plate reading, Average values (E. coli W3110 [3]; Ciprofloxacin 25 nM + PMBN 2 µM): 0.4386 | checkerboard plate reading, Average values (E. coli W3110 [3]; Ciprofloxacin 25 nM + PMBN 4 µM): 0.4173 | checkerboard plate reading, Average values (E. coli W3110 [3]; Ciprofloxacin 25 nM + PMBN 8 µM): 0.2541 | checkerboard plate reading, Average values (E. coli W3110 [3]; Ciprofloxacin 25 nM + PMBN 16 µM): 0.196 | checkerboard plate reading, Average values (E. coli W3110 [3]; Ciprofloxacin 25 nM + PMBN 32 µM): 0.2103 | checkerboard plate reading, Average values (E. coli W3110 [3]; Ciprofloxacin 50 nM + PMBN 0 µM): 0.1991 | checkerboard plate reading, Average values (E. coli W3110 [3]; Ciprofloxacin 50 nM + PMBN 0.5 µM): 0.2079 | checkerboard plate reading, Average values (E. coli W3110 [3]; Ciprofloxacin 50 nM + PMBN 1 µM): 0.2136 | checkerboard plate reading, Average values (E. coli W3110 [3]; Ciprofloxacin 50 nM + PMBN 2 µM): 0.1771 | checkerboard plate reading, Average values (E. coli W3110 [3]; Ciprofloxacin 50 nM + PMBN 4 µM): 0.1678 | checkerboard plate reading, Average values (E. coli W3110 [3]; Ciprofloxacin 50 nM + PMBN 8 µM): 0.1671 | checkerboard plate reading, Average values (E. coli W3110 [3]; Ciprofloxacin 50 nM + PMBN 16 µM): 0.1685 | checkerboard plate reading, Average values (E. coli W3110 [3]; Ciprofloxacin 50 nM + PMBN 32 µM): 0.1738 | MIC (E. coli W3110 [3]; Escherichia coli, W3110): 0.05 µM | MIC E. coli + 8 μM PMBN (E. coli W3110 [3]; LPS disruption (pharmacological)): 0.024 µM | synergy with PMBN (E. coli W3110 [3]; checkerboard): does not have an effect and none | MSC (E. coli W3110 [3]; checkerboard with PMBN, E. coli W3110): 0.025 µM

O=S(=O)(NCCNCc1ccc(-c2ccc(F)nc2)cc1)c1cccc2cnccc12 [Compound 60]
MIC (E. coli W3110 [1]; W3110, read-out: MIC E. coli W3110): 6.25 µM | MIC (K. pneumoniae ATCC 29665; [7]): 25 µM (≈ 10.9 µg/mL) | MIC (K. pneumoniae ATCC 29665; [5]): 6.25 µM (≈ 2.73 µg/mL) | MIC [2, 6]: 6.25 µM (≈ 2.73 µg/mL) | MIC (E. coli ATCC 25922; [8]): 12.5 µM (≈ 5.46 µg/mL) | FC [4, 9]: > 2 | MSC ([4]; E. coli 1075): 25 µM | FC [4, 10]: 16 | MSC ([4]; E. coli 552059.1): 3.1 µM | FC [4, 11]: 16 | MSC ([4]; E. coli 552060.1): 3.1 µM | FC [4, 12]: 16 | MSC ([4]; E. coli MVAST0072): 3.1 µM | FC [4, 13]: 8 | MSC ([4]; E. coli NCTC13463): 1.6 µM | FC [4, 14]: > 2 | MSC ([4]; E. coli NCTC13846): 25 µM | FC [4, 15]: 4 | MSC ([4]; E. coli mcr-1): 12.5 µM | MIC [4, 16]: > 50 µM | MIC [4, 17]: 50 µM | MIC [4, 18]: 50 µM | MIC [4, 19]: 50 µM | MIC ([4]; E. coli mcr-1 (MCR)): 50 µM | MIC [4, 20]: 12.5 µM | MIC [4, 21]: > 50 µM

O=S(=O)(NC[C@@H]1CC[C@H](c2ccc(-c3ccc(F)cc3)cc2)N1)c1cccc2cnccc12 [Compound 101]
MIC (E. coli W3110 [1]; W3110, WT, broth microdilution, read-out: MIC E. coli W3110): 1.6 µM | MIC (K. pneumoniae ATCC 29665; [7]): 3.1 µM (≈ 1.43 µg/mL) | MIC [2, 6]: 1.6 µM (≈ 0.738 µg/mL) | MIC (E. coli ATCC 25922; [8]): 3.1 µM (≈ 1.43 µg/mL) | FC [4, 9]: 8 | MSC ([4]; E. coli 1075): 6.25 µM | FC [4, 10]: 16 | MSC ([4]; E. coli 552059.1): 0.8 µM | FC [4, 11]: 16 | MSC ([4]; E. coli 552060.1): 0.8 µM | FC [4, 12]: 16 | MSC ([4]; E. coli MVAST0072): 0.8 µM | FC [4, 13]: 8 | MSC ([4]; E. coli NCTC13463): 0.4 µM | FC [4, 14]: 4 | MSC ([4]; E. coli NCTC13846): 3.1 µM | FC [4, 15]: 4 | MSC ([4]; E. coli mcr-1): 3.1 µM | MIC [4, 16]: 50 µM | MIC [4, 17]: 12.5 µM | MIC [4, 18]: 12.5 µM | MIC [4, 19]: 12.5 µM | MIC [4, 20]: 3.1 µM | MIC [4, 21]: 12.5 µM

From publication PMC11374673, “Discovery of isoquinoline sulfonamides as allosteric gyrase inhibitors with activity against fluoroquinolone-resistant bacteria” (Nature Chemistry, 2024)
